We go through 8 compounds from ChEMBL document CHEMBL6092131, “Synthesis, SAR, and application of JQ1 analogs as PROTACs for cancer therapy” (Bioorg Med Chem, 2024).

One test concerns BT-549. The test is described as follows: Antiproliferative activity against human BT-549 cells assessed as reduction in cell viability. It counts as functional, cell-based.
Another test in a line: cells. The following applies: Homo sapiens, Triple-negative breast cancer cell.
The target in test [1] is Protein cereblon/CREB-binding protein (Homo sapiens, UniProt Q92793+Q96SW2). The test is described as follows: PROTAC activity at CBP/CRBN in human VCaP cells assessed as protein degradation incubated for 24 hrs by Western blot analysis. It counts as cell-based.
Sequence of Protein cereblon/CREB-binding protein (Q92793 whole entry): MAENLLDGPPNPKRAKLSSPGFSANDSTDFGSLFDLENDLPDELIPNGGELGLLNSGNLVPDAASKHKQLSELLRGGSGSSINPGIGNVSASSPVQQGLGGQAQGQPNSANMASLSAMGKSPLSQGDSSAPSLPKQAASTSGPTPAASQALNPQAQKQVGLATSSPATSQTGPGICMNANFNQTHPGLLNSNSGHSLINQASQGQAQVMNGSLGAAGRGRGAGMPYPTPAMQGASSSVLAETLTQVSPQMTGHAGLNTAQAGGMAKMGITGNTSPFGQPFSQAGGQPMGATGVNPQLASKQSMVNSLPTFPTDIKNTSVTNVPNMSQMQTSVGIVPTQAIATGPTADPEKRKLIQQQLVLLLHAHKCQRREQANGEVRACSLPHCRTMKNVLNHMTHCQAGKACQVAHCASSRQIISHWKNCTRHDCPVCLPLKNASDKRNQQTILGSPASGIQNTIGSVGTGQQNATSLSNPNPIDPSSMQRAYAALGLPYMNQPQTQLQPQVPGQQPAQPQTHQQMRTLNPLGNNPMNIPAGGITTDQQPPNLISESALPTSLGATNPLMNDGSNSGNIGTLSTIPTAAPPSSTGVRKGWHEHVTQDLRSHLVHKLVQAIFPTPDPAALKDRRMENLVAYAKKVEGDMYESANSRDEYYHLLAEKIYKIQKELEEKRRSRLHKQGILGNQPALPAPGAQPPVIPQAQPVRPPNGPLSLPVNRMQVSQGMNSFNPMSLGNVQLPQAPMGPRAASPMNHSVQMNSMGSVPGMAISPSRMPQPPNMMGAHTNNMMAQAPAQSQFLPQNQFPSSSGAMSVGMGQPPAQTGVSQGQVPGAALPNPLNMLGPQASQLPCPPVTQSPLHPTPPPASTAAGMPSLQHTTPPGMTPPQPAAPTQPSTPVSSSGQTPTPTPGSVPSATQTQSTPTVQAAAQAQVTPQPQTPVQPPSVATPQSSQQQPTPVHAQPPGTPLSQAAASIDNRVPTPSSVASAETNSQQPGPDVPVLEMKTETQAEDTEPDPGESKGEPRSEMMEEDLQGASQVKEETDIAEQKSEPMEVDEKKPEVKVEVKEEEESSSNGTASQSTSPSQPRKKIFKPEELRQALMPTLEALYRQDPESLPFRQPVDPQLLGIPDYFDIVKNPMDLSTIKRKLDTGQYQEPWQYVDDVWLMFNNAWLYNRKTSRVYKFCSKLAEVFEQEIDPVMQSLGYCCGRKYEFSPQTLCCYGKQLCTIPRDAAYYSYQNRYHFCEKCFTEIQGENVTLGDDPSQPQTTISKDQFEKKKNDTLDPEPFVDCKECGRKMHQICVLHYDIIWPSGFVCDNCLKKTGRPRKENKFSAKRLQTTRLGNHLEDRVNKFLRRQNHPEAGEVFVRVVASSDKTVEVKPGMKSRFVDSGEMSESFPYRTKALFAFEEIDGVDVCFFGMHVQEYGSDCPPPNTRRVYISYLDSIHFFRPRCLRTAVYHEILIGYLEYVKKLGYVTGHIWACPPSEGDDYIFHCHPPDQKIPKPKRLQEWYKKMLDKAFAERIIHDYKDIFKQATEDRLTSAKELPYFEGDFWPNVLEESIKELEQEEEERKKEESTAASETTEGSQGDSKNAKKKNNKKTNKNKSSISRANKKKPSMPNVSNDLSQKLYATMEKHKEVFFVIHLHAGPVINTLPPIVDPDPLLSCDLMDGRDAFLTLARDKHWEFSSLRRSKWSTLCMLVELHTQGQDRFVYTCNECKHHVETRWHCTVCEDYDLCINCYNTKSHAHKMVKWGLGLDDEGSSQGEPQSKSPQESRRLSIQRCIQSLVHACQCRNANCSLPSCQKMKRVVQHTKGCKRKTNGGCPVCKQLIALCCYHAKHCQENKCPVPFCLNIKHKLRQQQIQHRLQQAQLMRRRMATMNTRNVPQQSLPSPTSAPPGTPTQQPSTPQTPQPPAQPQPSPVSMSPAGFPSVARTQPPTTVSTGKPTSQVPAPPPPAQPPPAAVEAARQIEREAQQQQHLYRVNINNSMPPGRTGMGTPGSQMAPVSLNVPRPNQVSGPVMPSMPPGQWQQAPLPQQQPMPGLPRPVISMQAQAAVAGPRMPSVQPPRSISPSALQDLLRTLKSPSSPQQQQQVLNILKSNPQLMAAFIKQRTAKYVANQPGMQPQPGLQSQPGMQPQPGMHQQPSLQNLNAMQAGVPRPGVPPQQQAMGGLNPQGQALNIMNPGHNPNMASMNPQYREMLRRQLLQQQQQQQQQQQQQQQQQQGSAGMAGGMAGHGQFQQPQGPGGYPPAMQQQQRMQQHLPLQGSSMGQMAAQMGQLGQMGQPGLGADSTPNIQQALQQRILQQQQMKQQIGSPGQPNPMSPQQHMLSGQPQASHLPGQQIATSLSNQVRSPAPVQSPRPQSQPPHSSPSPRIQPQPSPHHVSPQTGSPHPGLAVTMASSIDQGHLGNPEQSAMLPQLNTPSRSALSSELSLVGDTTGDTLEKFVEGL
Sequence of Protein cereblon/CREB-binding protein (Q96SW2 whole entry): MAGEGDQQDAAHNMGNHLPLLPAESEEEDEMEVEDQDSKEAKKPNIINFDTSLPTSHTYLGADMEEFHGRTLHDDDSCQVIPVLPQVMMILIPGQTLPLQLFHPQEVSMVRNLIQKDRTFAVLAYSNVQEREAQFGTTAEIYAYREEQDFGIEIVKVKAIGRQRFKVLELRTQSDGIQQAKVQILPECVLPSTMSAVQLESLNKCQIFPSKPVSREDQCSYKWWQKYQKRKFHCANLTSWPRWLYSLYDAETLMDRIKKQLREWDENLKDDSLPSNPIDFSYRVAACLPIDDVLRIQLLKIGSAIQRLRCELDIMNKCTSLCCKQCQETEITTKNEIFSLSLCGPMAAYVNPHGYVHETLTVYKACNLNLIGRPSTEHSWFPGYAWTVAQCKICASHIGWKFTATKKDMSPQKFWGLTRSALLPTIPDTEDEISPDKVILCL
Test [2] has as its target Bromodomain-containing protein 4 (Homo sapiens, UniProt O60885). The test is described as follows: Binding affinity to BRD4 BD2 (unknown origin) assessed as dissociation constant by SPR assay. (SPR reads the build-up and loss of mass on a sensor chip optically.)
Test [3] can be described thus: Cytotoxicity against human HAP1 cells assessed as reduction in cell viability measured for 24 hrs by SRB assay. The following applies: HAP1, 24 h. It counts as functional, cell-based. A general note: The SRB assay estimates cell density from bound dye.
The test system of the next test is MDA-MB-231. The experiment in a line: Antiproliferative activity against human MDA-MB-231 cells assessed as reduction in cell viability incubated for 72 hrs by MTT assay. The following applies: MDA-MB-231, 72 h. It counts as functional, cell-based. In general terms: Formazan colour is commonly taken as a measure of viable cells.
The next test has as its system MV4-11. The test is described as follows: Cytotoxicity against human MV4-11 cells assessed as reduction in cell viability incubated for 72 hrs by cell titer glo assay. It counts as functional, cell-based. As to conditions: MV4-11, 72 h.
Test [4] concerns the target von Hippel-Lindau disease tumor suppressor/Bromodomain-containing protein 4 (Homo sapiens, UniProt O60885+P40337). The test is described as follows: PROTAC activity at VHL/BRD4 in human HeLa cells assessed as protein degradation of BRD4 incubated for 24 hrs by Western blot analysis. The test is classed as cell-based.
Test [5] addresses T1, Protein cereblon/Bromodomain-containing protein 4 (Homo sapiens, UniProt O60885+Q96SW2). The experiment in a line: PROTAC activity at CRBN/BRD4 in human CA46 cells assessed as protein degradation incubated for 6 hrs by Western blot analysis. The test is classed as cell-based.
The target in test [6] is T1, Protein cereblon/Bromodomain-containing protein 4. The experiment in a line: PROTAC activity at CRBN/BRD4 in human NAMALVA cells assessed as protein degradation incubated for 6 hrs by Western blot analysis. The test is classed as cell-based.
The test system of another test is LNCaP. The experiment in a line: Antiproliferative activity against human LNCaP cells assessed as inhibition of cell viability incubated for 48 hrs by CellTiter-Glo assay. The test is classed as functional, cell-based.

For orientation: pIC50 means the negative decadic logarithm of the IC50, by convention in mol/L. As usually defined, the DC50 is the concentration at which degradation of the target reaches its halfway point. The term pKd denotes the Kd on a negative log10 scale, so that one unit is a factor of ten.

pIC50, pKd: −log10 of the molar value.

T1 sequence (Q96SW2 whole entry, looked up, other chains not shown): as the sequence (Q96SW2 whole entry) above
Sequence of von Hippel-Lindau disease tumor suppressor/Bromodomain-containing protein 4 (P40337 whole entry, looked up, other chains not shown): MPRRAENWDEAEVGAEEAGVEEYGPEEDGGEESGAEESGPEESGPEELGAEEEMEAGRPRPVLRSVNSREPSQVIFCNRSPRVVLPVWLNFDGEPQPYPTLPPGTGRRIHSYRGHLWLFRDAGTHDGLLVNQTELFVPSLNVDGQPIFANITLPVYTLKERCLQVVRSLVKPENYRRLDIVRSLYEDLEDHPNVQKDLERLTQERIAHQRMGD
Description for cells: Antiproliferative activity against human Triple-negative breast cancer cell

`Cc1sc2c(c1C)C(c1ccc(Cl)cc1)=N[C@@H](CC(=O)OC(C)(C)C)c1nnc(C)n1-2`: the negative-log IC50 (pIC50) in the test on BT-549 was 5.28; in the test “cells”, 5.00.

Turning to `Cc1ncsc1-c1ccc([C@H](C)NC(=O)[C@@H]2C[C@@H](O)CN2C(=O)[C@@H](NC(=O)COCCCOCCNC(=O)C[C@@H]2N=C(c3ccc(Cl)cc3)c3c(sc(C)c3C)-n3c(C)nnc32)C(C)(C)C)cc1`, the DC50 in test [1] stood at 5 nM.

`CC(=O)N[C@H](C(=O)N1C[C@H](O)C[C@H]1C(=O)NCc1ccc(-c2scnc2C)cc1)C(C)(C)SCCCCCCNC(=O)C[C@@H]1N=C(c2ccc(Cl)cc2)c2c(sc(C)c2C)-n2c(C)nnc21`: the pKd in test [2] was 8.36.

Take `Cc1sc2c(c1C)C(c1ccc(Cl)cc1)=N[C@@H](CC(=O)NCCCCOc1ccc(C3CC(c4ccc(Br)cc4)=NN3C(=O)CCl)cc1)c1nnc(C)n1-2` (stereo partly specified): the pIC50 in test [3] is 6.33.

Turning to `Cc1sc2c(c1C)C(c1ccc(Cl)cc1)=N[C@@H](CC(=O)NCCCCOc1ccc(Oc3ccc(N(Cc4ccccc4)C(=O)CCl)cc3)cc1)c1nnc(C)n1-2`, in the test with MDA-MB-231, the pIC50 was 6.27.

As to `Cc1ncsc1-c1ccc2c(c1)OCCOCCOC[C@@H](NC(=O)C[C@@H]1N=C(c3ccc(Cl)cc3)c3c(sc(C)c3C)-n3c(C)nnc31)COCCOCCOCC(=O)N[C@@H](C(C)(C)C)C(=O)N1C[C@H](O)C[C@H]1C(=O)NC2`, the pIC50 in the test with MV4-11 is 6.52. In test [4], the DC50 amounted to 640 nM.

With `Cc1sc2c(c1C)C(c1ccc(Cl)cc1)=N[C@@H](CC(=O)Nc1ccc(OCCOCCOCCOCCCc3cccc4c3C(=O)N(C3CCC(=O)NC3=O)C4=O)cc1)c1nnc(C)n1-2` (stereo partly specified), the DC50 in test [5] and in test [6] was under 1 nM throughout.

As for `CN[C@@H](C)C(=O)N[C@H](C(=O)N1CCC[C@H]1c1nc(C(=O)c2cccc(OCCOCCOCCOCCNC(=O)C[C@@H]3N=C(c4ccc(Cl)cc4)c4c(sc(C)c4C)-n4c(C)nnc43)c2)cs1)C1CCCCC1`, the pIC50 with LNCaP is 7.11.
